The target in assay [1] is T1, human Dopamine D2L receptor (Homo sapiens, UniProt P14416).
T1 construct: expressed in transfected cells; host or cells: CHO-K1
The assay can be described thus: cAMP HTRF functional assay (agonist/antagonist). In kind it is cell-based. The procedure:
(§1) Functional profiling of agonist and antagonist activities of 8′-OH DHE on human Adrenergic α1D, Dopamine D2L, and Serotonin 5-HT1B, 5-HT1D, 5-HT1F, 5-HT3, 5-HT4e and 5-HT5A receptors (compared against the parent (DHE) molecule) was carried out as follows.
(§2) The SPA 35S-GTPγS tests were conducted with Euroscreen membrane preparations […]. The HTRF assays were conducted with recombinant cell lines. The receptor accession numbers, cellular background and reference compounds are as reported below in Table 10.
(2) DHE and 8′-OH DHE were tested for agonist and antagonist activity at the human Dopamine D2L receptor using cAMP HTRF assay (in triplicate) at the following nanomolar concentrations: […]
(§3) Agonist activity of the test compounds was expressed as a percentage of the activity of the reference agonist at its EC100 concentration. Antagonist activity of the test compounds was expressed as a percentage of the inhibition of the reference agonist activity at its EC80 concentration. Dose-response data from the test compounds were analyzed with XLfit (IDBS) software using nonlinear regression applied to a sigmoidal dose-response model and the following equation: […]
(Time-resolved FRET reads energy transfer from a long-lived donor to a nearby acceptor.)

Assay [2] addresses T2, human Serotonin 5-HT1F receptor (Homo sapiens, UniProt P30939).
T2 construct: expressed in transfected cells; host or cells: CHO-K1
The assay can be described thus: cAMP HTRF functional assay (agonist/antagonist). In kind it is cell-based. The procedure: as §1, §2
(4) DHE and 8′-OH DHE were tested for agonist and antagonist activity at the human Serotonin 5-HT1F and Serotonin 5-HT4E receptors using cAMP HTRF assay (in triplicate) at the following nanomolar concentrations: […]
as §3

This is an account of results in US20150306096A1, “8'-HYDROXY-DIHYDROERGOTAMINE COMPOUNDS AND COMPOSITIONS” (MAP Pharmaceuticals, Inc., priority 2012, published 2015).

Like-named read-outs stand apart in the source and are kept apart here.

T2 sequence (P30939 whole entry): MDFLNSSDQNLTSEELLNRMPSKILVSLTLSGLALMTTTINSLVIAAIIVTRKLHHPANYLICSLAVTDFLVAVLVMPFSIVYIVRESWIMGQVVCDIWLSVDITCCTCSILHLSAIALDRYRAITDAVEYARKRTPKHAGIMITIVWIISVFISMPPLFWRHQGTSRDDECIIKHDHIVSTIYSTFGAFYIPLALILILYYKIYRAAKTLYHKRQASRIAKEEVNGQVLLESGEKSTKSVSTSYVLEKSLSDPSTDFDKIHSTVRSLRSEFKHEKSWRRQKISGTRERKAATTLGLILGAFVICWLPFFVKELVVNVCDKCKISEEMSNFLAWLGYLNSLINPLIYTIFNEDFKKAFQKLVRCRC
T1 sequence (P14416 whole entry): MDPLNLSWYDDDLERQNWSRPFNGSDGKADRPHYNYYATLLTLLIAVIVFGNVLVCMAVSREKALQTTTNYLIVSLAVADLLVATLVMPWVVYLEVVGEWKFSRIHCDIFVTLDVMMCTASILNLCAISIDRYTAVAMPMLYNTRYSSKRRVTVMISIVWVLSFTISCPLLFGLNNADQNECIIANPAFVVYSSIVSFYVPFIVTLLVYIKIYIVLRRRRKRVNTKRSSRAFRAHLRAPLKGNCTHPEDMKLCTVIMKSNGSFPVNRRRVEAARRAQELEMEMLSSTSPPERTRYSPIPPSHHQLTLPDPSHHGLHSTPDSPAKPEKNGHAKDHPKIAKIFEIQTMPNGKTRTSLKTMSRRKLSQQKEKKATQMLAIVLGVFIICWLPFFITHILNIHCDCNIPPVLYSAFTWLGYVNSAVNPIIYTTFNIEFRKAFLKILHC

Take `CN1C[C@H](C(=O)N[C@]2(C)O[C@@]3(O)[C@@H]4CCC(O)N4C(=O)[C@H](Cc4ccccc4)N3C2=O)C[C@@H]2c3cccc4[nH]cc(c34)C[C@H]21` (stereo partly shown) [8′-OH DHE, 8′-Hydroxy-Dihydroergotamine]: the EC50 in assay [1] (Dopamine D2L, cAMP HTRF, read-out: Functional activity (agonist)) came out at 1.61 nM. The “Agonist and antagonist activity” value in assay [2] was “inactive”.
Take `CN1C[C@H](C(=O)N[C@]2(C)O[C@@]3(O)[C@@H]4CCCN4C(=O)[C@H](Cc4ccccc4)N3C2=O)C[C@@H]2c3cccc4[nH]cc(c34)C[C@H]21` [DHE, Dihydroergotamine]: in assay [1], the EC50 amounted to 0.835 nM. Moreover, the “Agonist and antagonist activity” value in assay [2] was “inactive”.
